According to US4487708A (priority 1981, dated 1984):

Experiments:
[1] = compatibility of neutralizing amines with hydroquinone in solution; assay type: physicochemical; conditions: combined with hydroquinone
Description: To provide convenient single-drum treatments, it was decided to test-formulate various dioxo aromatic compounds with neutralizing amines.

[2] = room temperature oxygen scavenging test (flask with dissolved oxygen probe); conditions: for % O2 Removed: 60 seconds; for % O2 Removed / % O2 Removed At 60 Seconds: 23-25 °C; for % O2 Removed At 60 Seconds: Table 11, hydroquinone 93 ppm; for % O2 Removed, 1 Minute: hydroquinone: pH 8.6, 22.5 °C, ratio 0.94, initial O2 7.7 ppm
Description: The test apparatus basically consisted of a 1 liter, three-necked flask fitted with a dissolved oxygen probe and a pH electrode. The intent of this apparatus was to show reaction kinetics differences rather than precise measurements (within seconds) of reaction times.
The flask was filled with deionized water which had been stripped of some dissolved oxygen by bubbling nitrogen through a diffuser stone. The pH was adjusted to the desired level with sodium hydroxide. The flask was sealed with a rubber septum, the dissolved oxygen probe and the pH electrode. A magnetic stirrer bar was left in the flask for mixing. The mixer was turned on, and dissolved oxygen and temperature readings were recorded until the dissolved oxygen reached a constant value. Next, the appropriate quantity of additive was injected through the septum using a hypodermic syringe. The initial mole ratio of treatment to dissolved oxygen was determined by weighing feed chemical and measuring the oxygen concentration. […] Dissolved oxygen and temperature readings were then taken at appropriate time intervals.
Using the same apparatus and procedure as described in Example 4 above, oxygen scavenging experiments were performed by injecting 1 ml of stock solution into a glass vessel containing 1070 ml of air-saturated, demineralized water adjusted to the appropriate pH with 7N sodium hydroxide. […] The final pH values indicated are for the test water.
The stock solution concentrations are presented in terms of weight % aqueous. The stock solutions were each 100 grams total. […] The tests were conducted at ambient temperature (23°-25° C.).
The tests were conducted at ambient temperature (23°-25° C.).

[3] = for mu-amine required to effect dissolution: saturated solution, 10.0 g hydroquinone (6.3 + 3.7 g) in 89.5 g water
Experimental: Volumes of mu-amines required to effect dissolution were recorded and converted to weights via density.

[4] = oxygen scavenging efficacy at elevated temperature and pressure (hot water flow system)
Experimental: In a first series of tests, the oxygen scavenging efficacies of various materials were evaluated under conditions of elevated temperature and pressure. The test apparatus used was essentially a stainless steel hot water flow system equipped with appropriate monitoring instrumentation. Demineralized feedwater, adjusted to the appropriate pH and initial dissolved oxygen level (controlled by nitrogen sparging), was pumped from a reservoir at ambient temperature into a once-through heater. Temperature was monitored continuously by means of thermocouples at several locations along the length of the flow tubing. A solution containing the oxygen scavenger test material was loaded into a pump driven syringe and fed continuously to the heated flow stream through a port containing a stainless steel ribbon mixing baffle. The feedwater containing dissolved oxygen and the test material then traversed the flow tubing via a by-pass comprising an additional length of coiled tubing. Contact (or reaction) time of the test material and dissolved oxygen was governed by the choice of coil length. The tendency of the temperature to drop during residence in the coiled tubing was offset by the use of thermostatted heating tapes which maintained the temperature in this tubing at 78±3° C. Upon exiting the coiled tubing, the stream flowed through a sample cooler to render the temperature of the liquid compatible with the operating range of a membrane-type dissolved oxygen probe. The cooled liquid was analyzed for dissolved oxygen via a D.O. flow cell, and pH was potentiometrically monitored in the flow tube immediately downstream of the D.O. probe. Outputs of the temperature, pH and dissolved oxygen probes during operation were monitored via strip chart recorders. The final destination of the reaction mixture was a reservoir which could be drained for analysis of reaction products, if desired.
Temperature in the system could be maintained at 78±3+ C. under 4±1 psig. Residence time of the feedwater in the flow tube from chemical feed point to D.O. flow cell outlet was 4±0.2 minutes. Approximately 3.5 minutes of this total was spent in a 40' length of 0.402 inch i.d. coiled tubing. Entry into and residence in the sample cooler accounted for 0.5 minute of the total contact time.
According to an article by J. W. Cohn and R. E. Powell, Jr., J. Amer.
The test solutions were prepared by initially mixing 10 grams of test material and 90 grams of demineralized water in glass bottles and allowing the mixture to remain in a shaker for several hours. If complete dissolution for a given material was observed after shaking, the pH of the solution was measured. When the pH of the solution was below 10.0, 7N sodium hydroxide was added dropwise until this value was reached. The quantity of added sodium hydroxide was recorded and later used in corrections for the active concentration of the solution. When the pH value of a stock solution was above pH 10.0 without requiring the addition of caustic, the solution was not further modified.
Results of these tests are reported in TABLE 1 below in terms of percent oxygen removed from the test stream. The precision of the initial and final dissolved oxygen values reported is approximately ±10%. […] The experimental uncertainties decrease with increasing values of percent dissolved oxygen removal.
The specific experimental conditions were:
Reaction Time=240±10 seconds

[5] = dissolution and storage stability of hydroquinone/methoxypropylamine solutions; assay type: physicochemical
Experimental: The following 25 gram solutions were prepared and sealed in glass bottles (components listed in order of addition):
Fifty (50) grams of each of the following solutions were prepared in glass bottles, sealed and placed on a shaker for two hours: […]

[6] = thermal stability of amines / dioxo aromatic compounds (no method given); assay type: physicochemical; conditions: of the amines tested
[7] = oxygen removal from feedwater of a working boiler (Example 2)
Experimental: In order to compare the performance of hydroquinone with that of hydrazine under field-type conditions, a series of experiments were conducted on the feedwater of a working boiler. The test materials were fed to the deaerator storage tank, and the resultant change, if any, in dissolved oxygen level was measured on a sample flowing from the feedwater line through a membrane-type dissolved oxygen probe.
During the tests, a relatively wide range of experimental conditions was encountered among the test parameters, reflecting the difficulty of attempting to obtain precise data during experiments performed on a working boiler.
In order to provide some point of reference for judging oxygen scavenging efficacies while taking into account the diverse conditions experienced on a daily basis, hydrazine control runs were performed, whenever possible, under feedwater and boiler conditions similar to those encountered during testing of other test materials. The hydrazine control runs are reported below in Table 3, also in terms of % oxygen removal.

[8] = cited from earlier work
[9] = cited from earlier work; remark: listed apart in the source
[10] = Table 8, mu-amine combined with hydroquinone, 103 ppm each, final pH 9.3-10.5
[11] = stock mu-amine 1.5 / hydroquinone 10.0 wt. %, HQ:mu-amine 6.67:1
[12] = stock mu-amine 90.0 / hydroquinone 10.0 wt. %, HQ:mu-amine 1:9
[13] = stock mu-amine 99.0 / hydroquinone 1.0 wt. %, HQ:mu-amine 1:99
[14] = Table 9, mu-amine combined with hydroquinone, about 30 ppm / 10 ppm, 78±1 °C, 3-5 psig, 240±10 seconds, final pH 10.3, initial O2 500-750 ppb
[15] = Table 10, mu-amine combined with hydroquinone, 6.7 ppm each, 78±1 °C, 3-5 psig, 240±10 seconds, final pH 9.7, initial O2 1.0-1.5 ppm
[16] = Table 5, hydrazine: pH 9.2, 26.5 °C, ratio 10.5, initial O2 0.87 ppm
[17] = Table 1, 78±3 °C, 4±1 psig, contact 4±0.2 min, feedwater 58-100 ppm, pH 8.9-10.9, initial O2 1.8-2.3 ppm, hydrazine average of 9 runs, values below 20% may be artifacts
[18] = 6.3 g hydroquinone in 89.5 g demineralized water

Compound: NC1CCCCC1 [Cyclohexylamine]
- compatibility with hydroquinone in solution [1]: precipitated out of solution

Compound: CC(O)CNCC(C)O (stereo not drawn) [Diisopropanolamine]
- % O2 Removed [2, 10]: 86%

Compound: CN(C)CCCN [Dimethylaminopropylamine]
- % O2 Removed [2, 10]: 76%
- % O2 Removed At 60 Seconds [2, 11]: 94%
- % O2 Removed At 60 Seconds ([2]; stock mu-amine 30.0 / hydroquinone 10.0 wt. %, HQ:mu-amine 1:3): 99%
- % O2 Removed At 60 Seconds [2, 12]: 98%
- % O2 Removed At 60 Seconds [2, 13]: 50%
- mu-amine required to effect dissolution [3]: 1.7 grams

Compound: NCCN [Ethylenediamine]
- % O2 Removed [4, 14]: 99%
- % O2 Removed [2, 10]: 85%

Compound: COCCCN [Methoxypropylamine]
- % O2 Removed [4, 15]: 99%
- % O2 Removed At 60 Seconds [2, 11]: 96%
- % O2 Removed At 60 Seconds ([2]; stock mu-amine 2.0 / hydroquinone 10.0 wt. %, HQ:mu-amine 5:1): 96%
- % O2 Removed At 60 Seconds ([2]; stock mu-amine 3.0 / hydroquinone 10.0 wt. %, HQ:mu-amine 3.33:1): 96%
- % O2 Removed At 60 Seconds ([2]; stock mu-amine 15.0 / hydroquinone 15.0 wt. %, 1:1): 95%
- % O2 Removed At 60 Seconds ([2]; stock mu-amine 20.0 / hydroquinone 20.0 wt. %, 1:1): 98%
- % O2 Removed At 60 Seconds ([2]; stock mu-amine 30.0 / hydroquinone 30.0 wt. %, 1:1): 98%
- % O2 Removed At 60 Seconds ([2]; stock mu-amine 40.0 / hydroquinone 40.0 wt. %, 1:1): 94%
- % O2 Removed At 60 Seconds [2, 12]: 94%
- % O2 Removed At 60 Seconds [2, 13]: 96%
- % O2 Removed ([2]; Table 12, methoxypropylamine 1.0 / hydroquinone 1.0 wt. %, final pH 8.5): 10%
- % O2 Removed ([2]; Table 12, methoxypropylamine 1.0 / hydroquinone 6.0 wt. %, final pH 8.4): 78%
- % O2 Removed ([2]; Table 12, methoxypropylamine 3.0 / hydroquinone 3.0 wt. %, final pH 8.9): 74%
- % O2 Removed ([2]; Table 12, methoxypropylamine 6.0 / hydroquinone 1.0 wt. %, final pH 9.0): 17%
- % O2 Removed ([2]; Table 12, methoxypropylamine 6.0 / hydroquinone 6.0 wt. %, final pH 9.0): 93%
- lowest practical MOPA concentration in the mixture ([5]; 10% hydroquinone aqueous solution): 2%
- MOPA required to dissolve hydroquinone ([3]; 10.0 g hydroquinone, neat MOPA): 12.5 grams
- mu-amine required to effect dissolution [3]: 1.7 grams
- thermal stability [6]: most thermally stable of the amines tested

Compound: NCCO [Monoethanolamine]
- % O2 Removed [2, 10]: 75%

Compound: CC(O)CN (stereo not drawn) [Monoisopropanolamine]
- % O2 Removed [4, 15]: 98%

Compound: C1COCCN1 [Morpholine]
- compatibility with hydroquinone in solution [1]: precipitated out of solution

Compound: NCCNCCNCCN [Triethylenetetramine]
- % O2 Removed [2, 10]: 89%

Compound: NN [hydrazine]
- % O2 Removed ([7]; Table 3, control run 1, 1.6 ppm actives, pH 8.8, steam load 11, initial O2 13.0 ppb): 69%
- % O2 Removed ([7]; Table 3, control run 2, 1.1 ppm actives, pH 9.4, steam load 15, initial O2 4.0 ppb): 50%
- % O2 Removed ([7]; Table 3, control run 3, 1.2 ppm actives, pH 8.6, steam load 15, initial O2 6.0 ppb): 60%
- % O2 Removed ([7]; Table 3, control run 4, 1.0 ppm actives, pH 8.8, steam load 15, initial O2 5.8 ppb): 55%
- % O2 Removed ([7]; Table 3, control run 5, 0.8 ppm actives, pH 9.4, steam load 11, initial O2 3.5 ppb): 31%
- % O2 Removed ([7]; Table 3, control run 6, 1.6 ppm actives, pH 9.6, steam load 14, initial O2 4.0 ppb): 30%
- % O2 Removed, 5 Minutes [2, 16]: 2%
- % O2 Removed, 1 Minute [2, 16]: 1%
- pH of maximum oxygen scavenging efficacy ([8]; Cohn and Powell 1954): 10.0-10.5 pH
- decomposition temperature ([8]; forms ammonia): Above 400 ° F.
- rate of reaction with oxygen ([8]; low temperatures, such as room temperature): very slow at low temperatures

Compound: Oc1ccc(O)cc1 [hydroquinone]
- % O2 Removed [4, 17]: 97%
- % O2 Removed, 1 Minute [2, 16]: 29%
- % O2 Removed ([2]; Table 12, mu-amine 0 / hydroquinone 1.0 wt. %, final pH 8.1): 9%
- % O2 Removed ([2]; Table 12, mu-amine 0 / hydroquinone 3.0 wt. %, final pH 8.0): 17%
- % O2 Removed ([2]; Table 12, mu-amine 0 / hydroquinone 6.0 wt. %, final pH 7.9): 27%
- active hydroquinone concentration of stable aqueous solution ([5]; 1 to 1 with methoxypropylamine (40%), sealed storage for 12 days): up to 40%
- dissolution time, solution #1 [3, 18]: 23 min
- dissolution time, solution #2 [3, 18]: 19 min
- dissolution time, solution #3 [3, 18]: 21 min
- aqueous solubility (accepted literature value) ([9]; 25 °C): ~7%
- solubility in water ([9]; hydroquinone alone): about 7%

Compound: Nc1ccccc1N [o-phenylenediamine, reference compound]
- % O2 Removed [4, 17]: 10%

Compound: Nc1ccc(N)cc1 [p-phenylenediamine, reference compound]
- % O2 Removed [4, 17]: 35%

Compound: Oc1cccc(O)c1 [resorcinol, reference compound]
- % O2 Removed [4, 17]: 0%

Compound: CCC(C)N (stereo not drawn) [sec-Butylamine]
- % O2 Removed [2, 10]: 74%
- compatibility with hydroquinone in solution [1]: compatible with hydroquinone in solution

Compound: CC(C)(C)N [tert-Butylamine]
- compatibility with hydroquinone in solution [1]: insoluble mass

Compound: Dimethyl(iso)propanolamine
- % O2 Removed [4, 14]: 98%
- % O2 Removed [2, 10]: 73%
